Assay results as given in patent publication US6787534B2, “Sulfonamide-containing heterocyclic compounds” (Eisai Co., Ltd., priority 1999, dated 2004).
Values after ≈ are worked out from the molar mass of the structure shown.

System: aorta pieces of rat (angiogenesis, capillaries formed around the aorta)
Assay: Antiangiogenic effect: inhibition of capillary formation around rat aorta pieces incubated in collagen
Format: cell-based, rat (Sprague-Dawley)
Conditions: rat thoracic aorta pieces in Type I collagen gel, MCDB 131 medium; capillaries counted on 7th day from addition of test compound; three-fold dilutions from 10 μg/ml; read-out: IC50 (50% inhibiting concentration of angiogenesis)
Description: Pharmacological Experimental Example 1, Antiangiogenic Effect
The inhibition degree of angiogenesis which was observed when aorta pieces of rat were incubated in collagen was defined as an antiangiogenic effect. That is, the thoracic aorta excised from male rat of Sprague-Dawley strain (10-12 weeks age) was washed with a Hanks' solution (Gibco BRL, Gaithersburg, USA) so that fat tissues around there were removed minutely. The aorta was incised to prepare pieces of 2 mm square and they were allowed to stand in a 24-well plate holding the endothelial cells upside. Then, 500 μl of neutralized Type I collagen (Cell Matrix Type I-A; manufactured by Nitta Gelatin) were poured over each well and allowed to stand at room temperature for about 20 minutes in a clean bench to solidify the gel. After confirming that the gel was solidified, 500 μl of MCDB 131 medium (manufactured by Chlorella Kogyo) were added thereto followed by incubating in a CO2 incubator (5% CO2) at 37° C. On the next day, the culture medium was exchanged with 500 μl of MCDB 131 medium containing the test compound and the incubation was continued. After three days, the medium was again exchanged with 500 μl of MCDB 131 medium containing the test compound and, at the stage of the 7th day from the initiation of addition of the test compound, numbers of capillaries formed around the aorta were counted under a microscope. The solution containing the test compound was prepared in a three-fold dilution system where 10 μg/ml was the highest concentration.
Inhibiting rate was calculated from the following formula and 50% inhibiting concentration (IC50) for each test compound was determined.
Inhibiting Rate (%)=(C−T)/Cx100
C: Numbers of capillaries when no compound was added
T: Numbers of capillaries when a compound was added Table 1

| SMILES | IC50 [µg/mL] |
| --- | --- |
| O=S(=O)(Nc1cnc2c(Br)cccc2c1)c1cccnc1 [Example 1, N-(8-Bromoquinolin-3-yl)-3-pyridinesulfonamide] | 0.49 (≈ 1.35 µM) |
| Cc1cncc(S(=O)(=O)Nc2ccc3c(Br)cccc3n2)c1 [Example 2, N-(5-Bromoquinolin-2-yl)-5-methyl-3-pyridinesulfonamide] | 0.74 (≈ 1.96 µM) |
| N#Cc1ccc(S(=O)(=O)Nc2cnc3c(Br)cccc3c2)cc1 [Example 4, N-(8-Bromoquinolin-3-yl)-4-cyanobenzenesulfonamide] | 0.09 (≈ 0.232 µM) |
| CCNS(=O)(=O)c1ccc(S(=O)(=O)Nc2cnc3c(Br)cccc3c2)cc1 [Example 6, N-(8-Bromoquinolin-3-yl)-4-(N-ethylsulfamoyl)benzenesulfonamide] | 0.12 (≈ 0.255 µM) |
| O=S(=O)(Nc1cnc2c(Br)cccc2c1)c1ccc2c(c1)CCC2 [Example 11, N-(8-Bromoquinolin-3-yl)-5-indanesulfonamide] | 0.04 (≈ 0.0992 µM) |
| O=S(=O)(Nc1cnc2c(I)cccc2c1)c1cncc2ccccc12 [Example 15, N-(8-Iodoquinolin-3-yl)-4-isoquinolinesulfonamide] | 0.87 (≈ 1.89 µM) |
| N#Cc1ccc(S(=O)(=O)Nc2ccc3c(Cl)cccc3n2)cc1 [Example 24, 4-Cyano-N-(5-chloroquinolin-2-yl)-benzenesulfonamide] | 0.49 (≈ 1.43 µM) |
| CCNS(=O)(=O)c1ccc(S(=O)(=O)Nc2ccc3c(Br)cccc3n2)cc1 [Example 27, N-(5-Bromoquinolin-2-yl)-4-(N-ethylsulfamoyl)benzenesulfonamide] | 0.08 (≈ 0.17 µM) |
| N#Cc1ccc(S(=O)(=O)Nc2cnc3c(C(F)(F)F)cccc3c2)cc1 [Example 38, N-(8-Trifluoromethylquinolin-3-yl)-4-cyanobenzenesulfonmide] | 0.15 (≈ 0.398 µM) |
| O=S(=O)(Nc1cnc2c(Br)cccc2c1)c1ccc2c(c1)SCCO2 [Example 47, N-(8-Bromoquinolin-3-yl) -4-oxa-7-thiochromansulfonamide] | 0.09 (≈ 0.206 µM) |
| CC(=O)NCCc1ccc(S(=O)(=O)Nc2cnc3c(Br)cccc3c2)cc1 [Example 48, N-(8-Bromoquinolin-3-yl)-4-(2-acetamideethyl)benzenesulfonamide] | 0.35 (≈ 0.781 µM) |
| O=S1(=O)CCCc2cc(S(=O)(=O)Nc3cnc4c(Br)cccc4c3)ccc21 [Example 50, N-(8-Bromoquinolin-3-yl) -1,1-dioxide-6-yl-sulfonamide] | 0.31 (≈ 0.663 µM) |
| COc1ccc(S(=O)(=O)Nc2cnc3c(Br)cccc3c2)nn1 [Example 53] | 0.53 (≈ 1.34 µM) |
| O=S(=O)(Nc1ccc2c(Br)cncc2c1)c1ccc(Cl)nc1 [Example 59, N-(4-Bromoisoquinolin-7-yl)-6-chloro-3-pyridinesulfonamide] | 0.2 (≈ 0.502 µM) |
| N#Cc1ccc(S(=O)(=O)Nc2ccc3c(Cl)nccc3c2)cc1 [Example 61, 1-Chloro-6-(4-cyanobenzenesulfonylamino)isoquinoline] | 0.3 (≈ 0.873 µM) |
| COc1nccc2cc(NS(=O)(=O)c3ccc(N)nc3)ccc12 [Example 69, 6-(2-Aminopyridin-5-ylsulfonylamino)-1-methoxyisoquinoline] | 0.15 (≈ 0.454 µM) |
| COc1nccc2cc(NS(=O)(=O)c3ccc(-c4nccs4)cc3)ccc12 [Example 77, 1-Methoxy-6-(4-thiazol-2-ylbenzenesulfonylamino)isoquinoline] | 0.39 (≈ 0.981 µM) |
| CCc1nccc2cc(NS(=O)(=O)c3ccc(Cl)cc3)ccc12 [Example 80, 6-(4-Chlorobenzenesulfonylamino)-1-ethylisoquinoline] | 0.2 (≈ 0.577 µM) |
| CCc1cncc2ccc(NS(=O)(=O)c3ccc(Cl)cc3)cc12 [Example 81] | 0.85 (≈ 2.45 µM) |
| N#Cc1nccc2cc(NS(=O)(=O)c3ccc(Cl)cc3)ccc12 [Example 84, 6-(4-Chlorobenzenesulfonylamino)-1-cyanoisoquinoline] | 0.14 (≈ 0.407 µM) |
| C=Cc1cccc2nc(NS(=O)(=O)c3cccnc3)ccc12 [Example 91, N-(5-Vinylquinolin-2-yl)-3-pyridinesulfonamide] | 0.33 (≈ 1.06 µM) |
| O=c1cc(C(F)(F)F)c2ccc(NS(=O)(=O)c3ccc(Cl)cc3)cc2o1 [Example 92, N-(4-Trifluoromethylcoumarin-7-yl)-4-chlorobenzenesulfonamide] | 0.2 (≈ 0.495 µM) |
